Key:
[1] = biological target: Polymerase acidic protein (Influenza A virus (strain A/X-31 H3N2), UniProt Q9IQ47); assay: Inhibition of recombinant Influenza virus A/X-31 N-terminal RdRp PA subunit (1 to 217) expressed in Escherichia coli using single-stranded circular DNA plasmid M13mp18 as substrate after 2 hrs by agarose gel electrophoresis; set-up: species or system Influenza A virus (A/X-31(H3N2))
Influenza A virus [2] = assay: Antiviral activity against Influenza A virus (A/PR/8/1934(H1N1)) infected in MDCK cells assessed as 2-log10 reduction in viral RNA copy number after 24 hrs by quantitative RT-PCR analysis; assay type: functional; settings: A/Puerto Rico/8/1934(H1N1)
Influenza A virus [3] = assay: Potency index, ratio of ribavirin EC99 to compound EC99 for Influenza A virus (A/PR/8/1934(H1N1)) infected in MDCK cells; assay type: functional, A/Puerto Rico/8/1934(H1N1)
Influenza A virus [4] = assay: Antiviral activity against Influenza A virus (A/PR/8/1934(H1N1)) infected in MDCK cells assessed as 1-log10 reduction in viral RNA copy number after 24 hrs by quantitative RT-PCR analysis; assay type: functional, organism-based; settings: A/Puerto Rico/8/1934(H1N1)
[5] = Cytotoxicity against HEK293T cells assessed as cell viability measured at 24 hrs by MTS assay; assay type: cell-based, HEK-293T; settings: human
[6] = Cytotoxicity against MDCK cells assessed as cell viability measured at 24 hrs by MTS assay; assay type: cell-based, Canis lupus familiaris; settings: dog
Influenza A virus [7] = assay: Antiviral activity against Influenza A virus (A/PR/8/1934(H1N1)) infected in HEK293T cells assessed as reduction in viral RNP reconstitution measured at 24 hrs by luciferase reporter gene assay; assay type: functional, organism-based; settings: A/Puerto Rico/8/1934(H1N1), HEK-293T
Influenza A virus [8] = assay: Potency index, ratio of ribavirin EC90 to compound EC90 for Influenza A virus (A/PR/8/1934(H1N1)) infected in MDCK cells; assay type: functional, A/Puerto Rico/8/1934(H1N1)

In the case of `O=C(O)CC1C(=O)NCCN1CCCc1ccccc1` (configuration not stated), the IC50 [1] is reported as > 500 µM.
In the case of `O=C(NCCc1ccc(O)c(O)c1)c1cc2cc(O)c(O)cc2[nH]1`, the EC99 (Influenza A virus [2]) is reported as 5.7 µM, the IC50 [1] is reported as 0.94 µM and the Ratio (Influenza A virus [3]) is reported as 2. The EC50 (Influenza A virus [4]) was 3.2 µM, the CC50 at 24 h [5] was 110 µM and the CC50 at 24 h [6] was ≥ 50 µM. It also gave an EC50 (Influenza A virus [7]) of 16 µM and a Ratio (Influenza A virus [8]) of 2.
For `O=C(O)C1C(C(=O)O)C(C(=O)O)C(C(=O)O)C(C(=O)O)C1C(=O)O` (configuration not stated), the IC50 [1] was > 500 µM.
With `Cc1nc(SCc2ccccc2)nc(O)c1CC(=O)O` the IC50 [1] was > 500 µM.
With `CNC(=O)c1cccc(Nc2nc(O)nc(O)c2C#N)c1` the IC50 [1] was > 500 µM.
For `O=C(O)c1nccnc1C(=O)Nc1nc(-c2cccs2)n[nH]1`, the IC50 [1] was > 500 µM.
With `Cc1cc(NC(=O)c2c(O)nc(O)[nH]c2=O)no1` the IC50 [1] was > 500 µM.
For `O=C(O)CCc1nn2c(nc1O)nc1ccccc12`, the IC50 [1] was > 500 µM.
For `O=C(O)CCc1nnc(SCc2ccc(Cl)cc2)nc1O`, the IC50 [1] was > 500 µM.
In the case of `COc1cc2nc(N3CCOCC3)nc(N)c2cc1OC`, the IC50 [1] is reported as > 500 µM.
Work on `O=C(NCCCNC(=O)c1cc2cc(O)c(O)cc2[nH]1)c1cc2ccccc2[nH]1` yielded an EC99 (Influenza A virus [2]) of 73 µM, an IC50 [1] of 65 µM and an EC50 (Influenza A virus [4]) of 32 µM. The CC50 at 24 h [5] was > 200 µM, the CC50 at 24 h [6] was > 200 µM and the EC50 (Influenza A virus [7]) was 64 µM.
For `O=C(CC(=O)Nc1ccccc1)NNc1ccc([N+](=O)[O-])cc1`, the IC50 [1] was > 500 µM.
With `Cc1cc(=O)oc2n[nH]c(C)c12` the IC50 [1] was > 500 µM.
In the case of `O=C(NCCCCNC(=O)c1cc2cc(O)c(O)cc2[nH]1)c1cc2cc(O)c(O)cc2[nH]1`, the EC99 (Influenza A virus [2]) is reported as 12 µM, the IC50 [1] is reported as 7 µM and the EC50 (Influenza A virus [4]) is reported as 6.3 µM. For the same molecule, the CC50 at 24 h [5] was > 200 µM, the CC50 at 24 h [6] was > 200 µM and the EC50 (Influenza A virus [7]) was 24 µM.
For `CCOC(=O)c1c(O)c2cc(OC)ccc2n(C)c1=O`, the IC50 [1] was > 500 µM.
Molecule `O=C(O)/C(O)=C/C(=O)C1(Cc2ccc(Cl)cc2)CCN(Cc2ccccc2)CC1` has an EC99 (Influenza A virus [2]) of 8.4 µM, an IC50 [1] of 0.48 µM and an EC50 (Influenza A virus [4]) of 5.4 µM. For the same molecule, the CC50 at 24 h [5] was > 100 µM, the CC50 at 24 h [6] was 181 µM and the EC50 (Influenza A virus [7]) was 3.4 µM.
With `NC(=O)c1ncn([C@@H]2O[C@H](CO)[C@@H](O)[C@H]2O)n1` [RIBAVIRIN] the EC99 (Influenza A virus [2]) was 11 µM, the CC50 at 24 h [5] was > 200 µM and the CC50 at 24 h [6] was > 200 µM. For the same molecule, the EC50 (Influenza A virus [7]) was 8.4 µM.
